Experimental data published in EP0908457B1, “3-(1,2-benzisothiazol- and isoxazol-5-Y1)-2,4(1H,3H)-pyrimidinedione or thione and 3-(1,2-benzisothiazol- and isoxazol-5-y1)-4(3H)-pyrimidinone or thione herbicidal agents” (BASF AKTIENGESELLSCHAFT, priority 1997, dated 1999).

Tests used:
[1] = test system: Oryza sativa, (L.) Tebonnet; experiment: Rice tolerance to post-transplant applications under flooded paddy conditions (Example 187), ORYSAT (Rice, Tebonnet); conditions: for ORYSAT: herbicidal effect rating 0-9, three to four weeks after treatment
Sagittaria pygmaea, L. = experiment: Preemergence weed control under flooded paddy conditions, SAGPY (Arrowhead (Pygmaea)); assay type: in vivo; conditions: flooded paddy; for SAGPY: herbicidal effect rating 0-9, three to four weeks after treatment; for herbicidal effect rating, SAGPY: meaning of each grade not given here
Cyperus iria = experiment: Preemergence weed control under flooded paddy conditions, CYPIR (Rice Flatsedge); assay type: in vivo; conditions: flooded paddy; for CYPIR: herbicidal effect rating 0-9, three to four weeks after treatment; for herbicidal effect rating, CYPIR: meaning of each grade not given here
[2] = test system: Monochoria vaginalis, Presl.; experiment: Preemergence weed control under flooded paddy conditions, MOOVA (Monochoria); assay type: in vivo; conditions: flooded paddy; for MOOVA: herbicidal effect rating 0-9, three to four weeks after treatment; for herbicidal effect rating, MOOVA: meaning of each grade not given here
[3] = test system: Echinochloa oryzoides (Ard.) Fritsch.; experiment: Preemergence weed control under flooded paddy conditions, ECHORC (Watergrass (Calif.)); assay type: in vivo; conditions: flooded paddy; for ECHORC: herbicidal effect rating 0-9, three to four weeks after treatment; for herbicidal effect rating, ECHORC: meaning of each grade not given here
[4] = test system: Cyperus serotinus, Rottb.; experiment: Preemergence weed control under flooded paddy conditions, CYPSE (Flatsedge); assay type: in vivo; conditions: for CYPSE: herbicidal effect rating 0-9, three to four weeks after treatment; for herbicidal effect rating, CYPSE: meaning of each grade not given here
[5] = 0.0320 kg/ha, preemergence weeds
[6] = 0.0620 kg/ha, preemergence weeds
[7] = 0.1250 kg/ha, preemergence weeds
[8] = 0.2500 kg/ha, preemergence weeds
[9] = 0.0313 kg/ha, rated three to four weeks after treatment
[10] = 0.0625 kg/ha, rated three to four weeks after treatment
[11] = 0.1250 kg/ha, rated three to four weeks after treatment
[12] = 0.2500 kg/ha, rated three to four weeks after treatment
[13] = 0.0313 kg/ha, preemergence weeds, rated three to four weeks after treatment
[14] = 0.0625 kg/ha, preemergence weeds, rated three to four weeks after treatment
[15] = 0.1250 kg/ha, preemergence weeds, rated three to four weeks after treatment
[16] = 0.2500 kg/ha, preemergence weeds, rated three to four weeks after treatment
[17] = Rate 0.2500 kg/ha, preemergence, rated three to four weeks after treatment
[18] = 0.0320 kg/ha, rated three to four weeks after treatment
[19] = 0.0620 kg/ha, rated three to four weeks after treatment
[20] = 0.0320 kg/ha, preemergence, rated three to four weeks after treatment
[21] = 0.0620 kg/ha, preemergence, rated three to four weeks after treatment
[22] = 0.1250 kg/ha, preemergence, rated three to four weeks after treatment
[23] = 0.2500 kg/ha, preemergence, rated three to four weeks after treatment
[24] = 0.0313 kg/ha, preemergence, rated three to four weeks after treatment
[25] = 0.0625 kg/ha, preemergence, rated three to four weeks after treatment

COC(=O)CN(C(=O)c1nsc2ccc(-n3c(=O)cc(C(F)(F)F)n(C)c3=O)cc12)S(=O)(=O)Cc1ccccc1 [Example 441, Glycine, N-(benzylsulfonyl)-N-{{5-[3,6-dihydro-3-methyl-2,6-dioxo-4-(trifluoromethyl)-1(2H)-pyrimidinyl]-1,2-benzisothiazol-3-yl}carbonyl}-, methyl ester]
ORYSAT ([1]; 0.0320 kg/ha): 0.0 | ORYSAT ([1]; 0.0620 kg/ha): 0.0 | ORYSAT ([1]; 0.1250 kg/ha): 2.0 | ORYSAT ([1]; 0.2500 kg/ha): 3.0 | SAGPY (Sagittaria pygmaea, L.; [5]): 0.0 | SAGPY (Sagittaria pygmaea, L.; [6]): 2.0 | SAGPY (Sagittaria pygmaea, L.; [7]): 3.0 | SAGPY (Sagittaria pygmaea, L.; [8]): 6.0 | CYPIR (Cyperus iria; [5]): 4.0 | CYPIR (Cyperus iria; [6]): 6.0 | CYPIR (Cyperus iria; [7]): 9.0 | CYPIR (Cyperus iria; [8]): 9.0 | MOOVA [2, 5]: 9.0 | MOOVA [2, 6]: 9.0 | MOOVA [2, 7]: 9.0 | MOOVA [2, 8]: 9.0 | ECHORC [3, 5]: 0.0 | ECHORC [3, 6]: 0.0 | ECHORC [3, 7]: 0.0 | ECHORC [3, 8]: 3.0 | CYPSE [4, 6]: 0.0 | CYPSE [4, 7]: 4.0 | CYPSE [4, 8]: 7.0

COC(=O)COc1cc2c(cc1-c1nsc3ccc(-n4c(=O)cc(C(F)(F)F)n(C)c4=O)cc13)CCC2 [Example 434, Acetic acid, {{6-{5-[3,6-dihydro-3-methyl-2,6-dioxo-4-(trifluoromethyl)-1(2H)-pyrimidinyl]-1,2-benzisothiazol-3-yl}-5-indanyl}oxy}-, methyl ester]
ORYSAT ([1]; 0.0320 kg/ha): 4.0 | ORYSAT ([1]; 0.0620 kg/ha): 6.0 | ORYSAT ([1]; 0.1250 kg/ha): 6.0 | ORYSAT ([1]; 0.2500 kg/ha): 7.0 | SAGPY (Sagittaria pygmaea, L.; [5]): 4.0 | SAGPY (Sagittaria pygmaea, L.; [6]): 4.0 | SAGPY (Sagittaria pygmaea, L.; [7]): 5.0 | SAGPY (Sagittaria pygmaea, L.; [8]): 6.0 | CYPIR (Cyperus iria; [5]): 3.0 | CYPIR (Cyperus iria; [6]): 3.0 | CYPIR (Cyperus iria; [7]): 7.0 | CYPIR (Cyperus iria; [8]): 8.0 | MOOVA [2, 5]: 9.0 | MOOVA [2, 6]: 9.0 | MOOVA [2, 7]: 9.0 | MOOVA [2, 8]: 9.0 | ECHORC [3, 5]: 6.0 | ECHORC [3, 6]: 7.0 | ECHORC [3, 7]: 7.0 | ECHORC [3, 8]: 9.0 | CYPSE [4, 5]: 4.0 | CYPSE [4, 7]: 4.0 | CYPSE [4, 8]: 7.0

CCOCCOCc1nsc2ccc(-n3c(=O)cc(C(F)(F)F)n(C)c3=O)cc12 [Example 200, 3-{3-[(2-Ethoxyethoxy)methyl]-1,2-benzisothiazol-5-yl}-1-methyl-6-(trifluoromethyl)-2,4(1H,3H)-pyrimidinedione]
herbicidal effect rating, ORYSAT (rice tolerance) [1, 9]: 7.0 | herbicidal effect rating, ORYSAT (rice tolerance) [1, 10]: 7.0 | herbicidal effect rating, ORYSAT (rice tolerance) [1, 11]: 9.0 | herbicidal effect rating, ORYSAT (rice tolerance) [1, 12]: 9.0 | herbicidal effect rating, SAGPY (Sagittaria pygmaea, L.; [13]): 0.0 | herbicidal effect rating, SAGPY (Sagittaria pygmaea, L.; [14]): 0.0 | herbicidal effect rating, SAGPY (Sagittaria pygmaea, L.; [15]): 0.0 | herbicidal effect rating, SAGPY (Sagittaria pygmaea, L.; [16]): 4.0 | herbicidal effect rating, CYPIR (Cyperus iria; [13]): 4.0 | herbicidal effect rating, CYPIR (Cyperus iria; [14]): 6.0 | herbicidal effect rating, CYPIR (Cyperus iria; [15]): 7.0 | herbicidal effect rating, CYPIR (Cyperus iria; [16]): 8.0 | herbicidal effect rating, MOOVA [2, 13]: 9.0 | herbicidal effect rating, MOOVA [2, 14]: 9.0 | herbicidal effect rating, MOOVA [2, 15]: 9.0 | herbicidal effect rating, MOOVA [2, 16]: 9.0 | herbicidal effect rating, ECHORC [3, 13]: 0.0 | herbicidal effect rating, ECHORC [3, 14]: 2.0 | herbicidal effect rating, ECHORC [3, 15]: 6.0 | herbicidal effect rating, ECHORC [3, 16]: 9.0 | herbicidal effect rating, CYPSE [4, 13]: 0.0 | herbicidal effect rating, CYPSE [4, 14]: 0.0 | herbicidal effect rating, CYPSE [4, 15]: 2.0 | herbicidal effect rating, CYPSE [4, 16]: 7.0

Cn1c(C(F)(F)F)cc(=O)n(-c2ccc3snc(CCBr)c3c2)c1=O [Example 260, 2,4(1H,3H)-Pyrimidinedione, 3-[3-(2-bromoethyl)-1,2-benzisothiazol-5-yl]-1-methyl-6-(trifluoromethyl)-]
ORYSAT herbicidal effect rating ([1]; Rate 0.2500 kg/ha, rated three to four weeks after treatment): 0.0 | SAGPY herbicidal effect rating (Sagittaria pygmaea, L.; [17]): 0.0 | CYPIR herbicidal effect rating (Cyperus iria; [17]): 0.0 | MOOVA herbicidal effect rating [2, 17]: 0.0 | ECHORC herbicidal effect rating [3, 17]: 0.0 | CYPSE herbicidal effect rating [4, 17]: 0.0

COC(=O)c1nsc2cc(F)c(-n3c(=O)cc(C(F)(F)F)n(C)c3=O)cc12 [Example 513, 1,2-Benzisothiazole-3-carboxylic acid, 5-[3,6-dihydro-3-methyl-2,6-dioxo-4-(trifluoromethyl)-1(2H)-pyrimidinyl]-6-fluoro-, methyl ester]
ORYSAT herbicidal rating (rice tolerance) [1, 18]: 9.0 | ORYSAT herbicidal rating (rice tolerance) [1, 19]: 7.0 | ORYSAT herbicidal rating (rice tolerance) [1, 11]: 9.0 | ORYSAT herbicidal rating (rice tolerance) [1, 12]: 9.0 | SAGPY herbicidal rating (Sagittaria pygmaea, L.; [20]): 9.0 | SAGPY herbicidal rating (Sagittaria pygmaea, L.; [21]): 9.0 | SAGPY herbicidal rating (Sagittaria pygmaea, L.; [22]): 9.0 | SAGPY herbicidal rating (Sagittaria pygmaea, L.; [23]): 9.0 | CYPIR herbicidal rating (Cyperus iria; [20]): 4.0 | CYPIR herbicidal rating (Cyperus iria; [21]): 4.0 | CYPIR herbicidal rating (Cyperus iria; [22]): 6.0 | CYPIR herbicidal rating (Cyperus iria; [23]): 9.0 | MOOVA herbicidal rating [2, 20]: 9.0 | MOOVA herbicidal rating [2, 21]: 9.0 | MOOVA herbicidal rating [2, 22]: 9.0 | MOOVA herbicidal rating [2, 23]: 9.0 | ECHORC herbicidal rating [3, 20]: 0.0 | ECHORC herbicidal rating [3, 21]: 5.0 | ECHORC herbicidal rating [3, 22]: 7.0 | ECHORC herbicidal rating [3, 23]: 8.0 | CYPSE herbicidal rating [4, 20]: 9.0 | CYPSE herbicidal rating [4, 21]: 9.0 | CYPSE herbicidal rating [4, 22]: 9.0 | CYPSE herbicidal rating [4, 23]: 9.0

Cn1c(C(F)(F)F)cc(=O)n(-c2ccc3snc(C(C)(C)C(=O)O)c3c2)c1=O [Example 466, 1,2-Benzisothiazole-3-acetic acid, 5-[3,6-dihydro-3-methyl-2,6-dioxo-4-(trifluoromethyl)-1(2H)-pyrimidinyl]-alpha,alpha-dimethyl-]
ORYSAT herbicidal rating (rice tolerance) [1, 18]: 4.0 | ORYSAT herbicidal rating (rice tolerance) [1, 19]: 5.0 | ORYSAT herbicidal rating (rice tolerance) [1, 11]: 7.0 | ORYSAT herbicidal rating (rice tolerance) [1, 12]: 9.0 | SAGPY herbicidal rating (Sagittaria pygmaea, L.; [20]): 0.0 | SAGPY herbicidal rating (Sagittaria pygmaea, L.; [21]): 0.0 | SAGPY herbicidal rating (Sagittaria pygmaea, L.; [22]): 3.0 | SAGPY herbicidal rating (Sagittaria pygmaea, L.; [23]): 7.0 | CYPIR herbicidal rating (Cyperus iria; [20]): 3.0 | CYPIR herbicidal rating (Cyperus iria; [21]): 3.0 | CYPIR herbicidal rating (Cyperus iria; [22]): 7.0 | CYPIR herbicidal rating (Cyperus iria; [23]): 9.0 | MOOVA herbicidal rating [2, 20]: 7.0 | MOOVA herbicidal rating [2, 21]: 7.0 | MOOVA herbicidal rating [2, 22]: 9.0 | MOOVA herbicidal rating [2, 23]: 9.0 | ECHORC herbicidal rating [3, 20]: 2.0 | ECHORC herbicidal rating [3, 21]: 4.0 | ECHORC herbicidal rating [3, 22]: 5.0 | ECHORC herbicidal rating [3, 23]: 7.0 | CYPSE herbicidal rating [4, 23]: 1.0

Cc1ccc(OC(C)C#N)c(-c2nsc3ccc(-n4c(=O)cc(C(F)(F)F)n(C)c4=O)cc23)c1 (stereo not shown) [Example 58, 3-{3-[6-(1-Cyanoethoxy)-m-tolyl]-1,2-benzisothiazol-5-yl}-1-methyl-6-(trifluoromethyl)-2,4(1H,3H)-pyrimidinedione]
herbicidal effect rating, ORYSAT (rice tolerance) [1, 9]: 2.0 | herbicidal effect rating, ORYSAT (rice tolerance) [1, 10]: 2.0 | herbicidal effect rating, ORYSAT (rice tolerance) [1, 11]: 3.0 | herbicidal effect rating, ORYSAT (rice tolerance) [1, 12]: 5.0 | herbicidal effect rating, SAGPY (Sagittaria pygmaea, L.; [24]): 0.0 | herbicidal effect rating, SAGPY (Sagittaria pygmaea, L.; [25]): 0.0 | herbicidal effect rating, SAGPY (Sagittaria pygmaea, L.; [22]): 0.0 | herbicidal effect rating, SAGPY (Sagittaria pygmaea, L.; [23]): 0.0 | herbicidal effect rating, CYPIR (Cyperus iria; [24]): 9.0 | herbicidal effect rating, CYPIR (Cyperus iria; [25]): 9.0 | herbicidal effect rating, CYPIR (Cyperus iria; [22]): 9.0 | herbicidal effect rating, CYPIR (Cyperus iria; [23]): 9.0 | herbicidal effect rating, MOOVA [2, 24]: 9.0 | herbicidal effect rating, MOOVA [2, 25]: 9.0 | herbicidal effect rating, MOOVA [2, 22]: 9.0 | herbicidal effect rating, MOOVA [2, 23]: 9.0 | herbicidal effect rating, ECHORC [3, 24]: 9.0 | herbicidal effect rating, ECHORC [3, 25]: 9.0 | herbicidal effect rating, ECHORC [3, 22]: 9.0 | herbicidal effect rating, ECHORC [3, 23]: 9.0 | herbicidal effect rating, CYPSE [4, 24]: 0.0 | herbicidal effect rating, CYPSE [4, 25]: 0.0 | herbicidal effect rating, CYPSE [4, 22]: 0.0 | herbicidal effect rating, CYPSE [4, 23]: 0.0
